Test results as given in patent US10328051B2, “Proline or proline derivatives for the treatment of dementia” (priority 2014, dated 2019).
“Also recorded” adds a separate entry of the source.

What was measured:
[1] = test system: Collagen IV; assay: Measurement of Collagen-IV following multiple dose administration of CHP (Study 0202-71); type: in vivo, human; conditions: healthy volunteers, multiple oral doses of CHP for 14 days; P-value 0.0016 (t-test), 0.0047 (Wilcoxon-test)
Source text: Example 7—Study Title: Measurement of Collagen-IV Following Multiple Dose Administration of CHP-Study 0202-71—(FIG. 8)
Using a one-sample two-sided t-test, a P-value of 0.0016 was obtained, indicating a 99.8% that the decreased observed was not the result of chance. Using a one-sample two-sided Wilcoxon-test, a P-value of 0.0047 was obtained, indicating a 99.5% that the decreased observed was not the result of chance.

[2] = Single ascending oral doses of CHP (Study 1001-68) and single IV dose (Study 0302-72): pharmacokinetics and safety in healthy volunteers; type: in vivo, human
Source text: study title Safety, tolerability and pharmacokinetic profile of single ascending doses of oral cis-4-hydroxy-L-proline (CHP) in healthy volunteers Galmed study no. 1001-68-. Results FIGS. 3 and 4.
Study title: Single Dose Absolute Bioavailability (intravenous IV solution) and Safety Study of CHP in Healthy Volunteers-GALMED Study No: 0302-72. Results are in (FIGS. 5 and 6)
Six healthy volunteers (male, caucasian—18-45 years old) were recruited from the GCP-Galmed clinical centre. All healthy volunteers provided written informed consent prior to study participation. The study was approved by the independent Ethical Committee.
All volunteers were orally administered 2, 4, 6, 8, 10 and 12 grams of CHP with a wash out period of at least one week between doses of CHP.
The following blood and urine samples were collected for determination of the pharmacokinetics parameters of CHP and THP:
10 hours and immediately prior to administration of CHP (0 Hour), and at 0.25, 0.5, 1, 1.5, 2, 2.5, 3, 4, 5, 6, 12 and 24 hours after administration of CHP.
Urine was collected for the determination of the CHP and THP concentrations and the calculation of the elimination parameters of CHP and THP.
Six healthy volunteers (male, caucasian—18-45 years old) were recruited from the GCP-Galmed clinical centre. All healthy volunteers provided written informed consent prior to study participation. The study was approved by the independent Ethical Committee. Single doses of CHP were intravenously administered: 2.0 g, 4.0 g (2×2.0 g). Each dose level was administered to all healthy volunteers. There was a washout period of at least one week between doses.
The following safety parameters were determined at the pre- and post-study examinations: • 1. Vital signs • 2. Clinical laboratory: Blood chemistry, Haematology, Coagulation, Urinalysis • 3. Adverse events (Signs and Symptoms) have been recorded in each of the two treatment periods.

[3] = Tissue distribution and pharmacokinetics of single dose of radiolabelled 3H-CHP in mice (Study IPSS C053); type: in vivo; conditions: single dose 3H-CHP
Source text: Example 1: Tissue Distribution and Pharmacokinetic Study with CHP Study “Clinical Study in Mice on the Tissue Distribution and Pharmacokinetics of Single Dose of the Radiolabelled ^3H-CHP-Study No.: IPSS C053”—(FIG. 1). This Study has been Designed and Performed According to this Invention
1. Determination of ^3H-CHP distribution in 25 tissues, remaining carcass and whole blood over time.
2. Determination of pharmacokinetic parameters of CHP.
3. Comparison of intravenous (IV), and oral routes of administration.
^3H-CHP Labelling • CHP was labelled on the 4-prime position using tritium. • The scintillation counting technique detects the tritium atom. • Therefore the counting technique detects CHP and some metabolites which incorporate the tritium. […] They were selected using inclusion and exclusion criteria, and were therefore highly standardised.
Dosing Regimen • 48 animals were each administered 50 μCi ^3H-CHP at the start of the experiment. This was termed time zero (00:00 hrs). • 27 mice were dosed via the intravenous (IV) route. • 21 mice were dosed via the oral route. • Six (6) animals were not administered with CHP. They form two control groups of 3 mice each.
Data Collection • 3 mice were sacrificed following the SOP for anesthesia and according to the following time intervals
Sample Collection • From each sacrificed mouse, the following samples were taken: • Whole BloodEyes & Harderian GlandsKidneys & Adrenal GlandsAortaLiverLungSpleenUrinary BladderBone & Bone MarrowCaecumSmall IntestineLarge IntestineLymph Nodes (Mesenteric) Muscle, PancreasBrain & Pituitary GlandBrown FatSubcutaneous FatHeartThymousBoth TestesProstateSkinStomachThyroidSalivary GlandsRemaining CarcassUrine (collected if possible: in practise this was rare)
The remaining carcass sample consisted of the rest after removal of whole blood and the other tissues. Any material cleaned from other tissues listed above was also included. The collected remainings were homogenised before analysis.

[4] = Multiple dose ascending bioavailability and safety study (Phase I) with oral CHP (Study 0202-71); type: in vivo, human
Method: Example 5—Study Title: Multiple Dose Ascending Bioavailability and Safety Study Phase 1 with Oral CHP-GALMED Study No: 0202-71
12 healthy Caucasian males were recruited (age: 18-45 years).
Multiple doses of CHP were orally administered: • 4×2.0 g CHP per day, for 14 consecutive days (total daily dose=8.0 g CHP) • 4×3.0 g CHP per day, for 14 consecutive days (total daily dose=12.0 g CHP) Each dose level was administered to all volunteers.
Objectives • To determine the pharmacokinetic parameters and safety of CHP and THP in plasma following oral administration of multiple doses of 8 g CHP (4×2 g) and 12 g CHP (4×3 g)—4× daily, τ=6 h, respectively, in 12 healthy subjects on Day 1 and Day 14. • To model and simulate plasma concentrations of CHP and THP during Days 1 to 14.

[5] = test system: hepatic fibrosis; assay: Phase II clinical study IPSS-B025: anti-fibrotic efficacy in chronic liver diseases; type: in vivo, human
Source text: Title: Phase II—CHP in patients with chronic viral hepatitis, chronic alcohol liver diseases without cirrhosis or primary sclerosing cholangitis 45 patients—Study IPSS-B025 (Example 12.4).

[6] = test system: adenocarcinoma and liver metastases, pancreatic cancer and bladder cancer; assay: Phase II clinical studies IPSS-A04, IPSS-B013, IPSS-D002: anti-tumour activity; type: in vivo, human
Source text: Title: Phase II—CHP as antitumour agent in patients with resected colorectal cancer and liver metastasis; 60 patients—Study IPSS-A04 (Example 12.1).
Title: Phase II—CHP in patients with locally advanced or metastatic pancreatic cancer—14 patients Study IPSS B013 (Example 12.2).
Title: Evaluation of safety and efficacy of CHP in patients with urogenital Cancer—25 patients—Study IPSS-D002 (Example 12.3).

[7] = healthy subjects, after oral administration of CHP 2 g-12 g
[8] = male, human, plasma, healthy subjects, oral 4×2.0 g CHP/day
[9] = oral CHP, administration 4× daily

O=C(O)[C@@H]1C[C@H](O)CN1 [CHP, cis-4-hydroxy-L-proline]
Collagen IV levels in blood [1]: inhibits significantly
Vital parameters, clinical chemistry, haematological and urinalysis findings ([2]; CHP administered orally and intravenously to healthy volunteers (Examples 3 and 4)): all within the normal range
Oral clearance (average) [2, 7]: 199.72 mL/min
Volume of distribution (average) [2, 7]: 63.94 L
Correlation of Cmax and AUC(0-∞) with dose ([2]; healthy subjects, oral CHP doses 2 g-12 g): dose linearity
Metabolism by the liver microsomal enzyme system ([2]; human, in vivo): isomerisation, hydroxylation and demethylation
half-life ([2]; male, human, in vivo, healthy subjects, after oral administration of CHP 2 g-12 g, read-out: Elimination half life (average) (converted)): 3.7 h
MRT ([2]; male, human, in vivo, healthy subjects, after oral administration of CHP 2 g-12 g, read-out: Mean residence time (MRT) (average)): 4.15 h
Tmax ([2]; male, human, healthy subjects, plasma, after oral administration of CHP 2 g-12 g): 1.24 h
Maximal concentration in the brain following oral administration in comparison to the intravenous application [3]: approximately 48%
Crossing of the blood-brain barrier ([3]; concentration observed in brain & pituitary gland): can cross the blood-brain barrier
Cmax [4, 8]: 52.3 µg/mL
Tmax [4, 8]: 0.98 h
half-life [4, 8]: 34.2 h
MRT inf ([4]; male, human, plasma, healthy subjects, oral 4×2.0 g CHP/day, read-out: MRT (0-inf)): 9.33 h
Accumulation following oral administration ([4]; multiple oral doses of CHP): extensive
Time after which a steady state was observed ([4]; multiple oral doses of CHP, 4× daily, simulation of plasma concentration-time curves): approximately 48 h
Plasma half-life relative to the dosing interval ([4]; oral CHP 4× daily, τ=6 h): approximately 4 times
Css,min lower if 2.0 g of CHP was administered (versus 3.0 g) [4, 9]: 36%
Increase of AUCss,t, Css,max and Css,ave when the dose was increased from 2.0 g up to 3.0 g [4, 9]: approximately 50%
Anti-fibrotic efficacy in patients suffering from chronic liver diseases [5]: inhibited the hepatic fibrosis; also recorded: antifibrotic efficacy; also recorded: anti-fibrotic efficacy; also recorded: anti-fibrotic activities
Anti-tumour activity in patients [6]: anti-tumour activities
